Results on 17 compounds are retold here after patent US8541585B2, “N-acyl cyclic amine derivative or pharmaceutically acceptable salt thereof” (Dainippon Sumitomo Pharma Co., Ltd., priority 2010, dated 2013).

One experiment concerns the target T1, human 5-HT6 receptor (Homo sapiens, UniProt P50406).
T1 construct: expressed in transfected cells; host or cells: CHO cells (membrane preparation)
Put plainly: Serotonin 5-HT6 receptor binding assay ([3H]-clozapine). The settings on record: 100 nM test drug, [3H]-clozapine 2 nM, human 5-HT6 receptor-expressing CHO cell membrane; for inhibition at 0.1 µM: read-out: BINDING INHIBITION RATE (%) 5HT6 100 nM. The protocol: (3) Serotonin 5-HT6 Receptor Binding Assay
After a reaction in a total volume of 200 μL of 50 mM Tris-HCl (pH=7.6), 4 mM CaCl2, and 0.5 mM EDTA buffer solution containing 50 μL of [^3H]-clozapine (final concentration 2 nM), 1 μL of test drug in DMSO, and 149 μL of human 5-HT6 receptor-expressing CHO cell membrane sample, human 5-HT6 receptor binding activity of [^3H]-clozapine was measured. The reaction solution let stand for 40 minutes at room temperature, and then it was quickly added on a glass fiber filter plate (Multiscreen FB, Millipore inc.) coated with 0.3% polyethyleneimine (PEI) and filtered under reduced pressure. The glass fiber filter was washed with 200 μL of ice-cooled 50 mM Tris-HCl (pH=7.6) twice, repeatedly filtered under reduced pressure, and then transferred to a vial containing 4 mL of Ecoscint A (National Diagnostics inc.). The residual radioactivity on the glass fiber filter was measured by a liquid scintillation counter. Nonspecific binding was measured in the presence of 10 μM of SB-258585, and [^3H]-clozapine binding inhibition rate in the presence of 100 nM of test drug was determined.

Another experiment deals with human D2L receptor (Homo sapiens, UniProt P14416). Put plainly: Dopamine D2L receptor binding assay ([3H]-spiperone). The settings on record: 10 nM test drug, [3H]-spiperone 0.5 nM, human D2L receptor-expressing CHO cell membrane; for inhibition at 0.01 µM: read-out: BINDING INHIBITION RATE (%) D2L 10 nM. The protocol:
(1) Dopamine D2L Receptor Binding Assay
D2L receptor binding assay was performed in reference to a method described by Hirose et al. (Japan. J. Pharmacol., 53, 321-329, 1990). After a reaction in a total volume of 200 μL of 50 mM Tris-HCl (pH=7.6) buffer solution containing 50 μL of [^3H]-spiperone (final concentration 0.5 nM), 1 μL of test drug in DMSO, and 149 μL of human D2L receptor-expressing CHO cell membrane sample, human D2L receptor binding activity of [^3H]-spiperone was measured. The reaction solution let stand for 60 minutes at room temperature, and then it was quickly added on a glass fiber filter plate (Multiscreen FB, Millipore inc.) coated with 0.3% polyethyleneimine (PEI) and filtered under reduced pressure. The glass fiber filter was washed with 200 μL of ice-cooled 50 mM Tris-HCl (pH=7.6) twice, repeatedly filtered under reduced pressure, and then transferred to a vial containing 4 mL of Ecoscint A (National Diagnostics inc.). The residual radioactivity on the glass fiber filter was measured by a liquid scintillation counter. Nonspecific binding was measured in the presence of 10 μM of spiperone, and [^3H]-spiperone binding inhibition rate in the presence of 10 nM of test drug was determined. The larger binding inhibition rate (%) means that test drug has the higher binding affinity for human D2L receptor.

The target in the next experiment is T2, human α1D receptor (Homo sapiens, UniProt P25100).
T2 construct: expressed in transfected cells; host or cells: CHO cells (membrane preparation)
T2 sequence (P25100 1-572): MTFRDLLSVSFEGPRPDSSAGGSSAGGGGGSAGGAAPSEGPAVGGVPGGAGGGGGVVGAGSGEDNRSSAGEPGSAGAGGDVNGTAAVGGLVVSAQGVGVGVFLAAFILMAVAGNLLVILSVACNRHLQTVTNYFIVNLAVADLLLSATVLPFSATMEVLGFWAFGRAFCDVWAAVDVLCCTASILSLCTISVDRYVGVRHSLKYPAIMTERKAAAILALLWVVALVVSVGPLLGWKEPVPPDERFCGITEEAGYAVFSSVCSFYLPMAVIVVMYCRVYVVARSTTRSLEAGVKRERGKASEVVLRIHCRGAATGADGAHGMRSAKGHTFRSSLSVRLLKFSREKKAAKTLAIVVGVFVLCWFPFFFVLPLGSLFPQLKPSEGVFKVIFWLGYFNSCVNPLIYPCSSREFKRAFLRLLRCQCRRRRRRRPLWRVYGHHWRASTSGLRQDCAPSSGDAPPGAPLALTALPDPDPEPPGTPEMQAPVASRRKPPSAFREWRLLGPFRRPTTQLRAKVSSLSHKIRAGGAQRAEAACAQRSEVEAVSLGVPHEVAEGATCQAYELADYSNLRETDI
Put plainly: Adrenaline α1D receptor binding assay ([3H]-prazosin). The settings on record: 100 nM test drug, [3H]-prazosin 0.6 nM, human α1D receptor-expressing CHO cell membrane; for inhibition at 0.1 µM: read-out: BINDING INHIBITION RATE (%) α1D 100 nM. The protocol:
(4) Adrenaline α1D Receptor Binding Assay
After a reaction in a total volume of 200 μL of 50 mM Tris-HCl (pH=7.6) buffer solution containing 50 μL of [^3H]-prazosin (final concentration 0.6 nM), 1 μL of test drug in DMSO, and 149 μL of human α1D receptor-expressing CHO cell membrane sample, human α1D receptor binding activity of [^3H]-prazosin was measured. The reaction solution let stand for 30 minutes at room temperature, and then it was quickly added on a glass fiber filter plate (Multiscreen FB, Millipore inc.) coated with 0.3% polyethyleneimine (PEI) and filtered under reduced pressure. The glass fiber filter was washed with 200 μL of ice-cooled 50 mM Tris-HCl (pH=7.6) twice, repeatedly filtered under reduced pressure, and then transferred to a vial containing 4 mL of Ecoscint A (National Diagnostics inc.). The residual radioactivity on the glass fiber filter was measured by a liquid scintillation counter. Nonspecific binding was measured in the presence of 1 μM of prazosin, and [^3H]-prazosin binding inhibition rate in the presence of 100 nM of test drug was determined.

The next experiment has as its target T3, human 5-HT2A receptor (Homo sapiens, UniProt P28223).
T3 construct: expressed in transfected cells; host or cells: CHO cells (membrane preparation)
Put plainly: Serotonin 5-HT2A receptor binding assay ([3H]-ketanserin). As to conditions: 10 nM test drug; [3H]-ketanserin 1 nM; human 5-HT2A receptor-expressing CHO cell membrane; read-out: BINDING INHIBITION RATE (%) 5HT2A 10 nM. The protocol: (2) Serotonin 5-HT2A Receptor Binding Assay
5-HT2A receptor binding assay was performed in reference to a method described by Hirose et al. (Japan. J. Pharmacol., 53, 321-329, 1990). After a reaction in a total volume of 200 μL of 50 mM Tris-HCl (pH=7.6) buffer solution containing 50 μL of [^3H]-ketanserin (final concentration 1 nM), 1 μL of test drug in DMSO, and 149 μL of human 5-HT2A receptor-expressing CHO cell membrane sample, human 5-HT2A receptor binding activity of [^3H]-ketanserin was measured. The reaction solution let stand for 15 minutes at 37° C., and then it was quickly added on a glass fiber filter plate (Multiscreen FB, Millipore inc.) coated with 0.05% Brij 35 and filtered under reduced pressure. The glass fiber filter was washed with 200 μL of ice-cooled 50 mM Tris-HCl (pH=7.6) twice, repeatedly filtered under reduced pressure, and then transferred to a vial containing 4 mL of Ecoscint A (National Diagnostics inc.). The residual radioactivity on the glass fiber filter was measured by a liquid scintillation counter. Nonspecific binding was measured in the presence of 10 μM of MDL-100907, and [^3H]-ketanserin binding inhibition rate in the presence of 1 nM or 10 nM of test drug was determined.

Chain of human D2L receptor (P14416 whole entry): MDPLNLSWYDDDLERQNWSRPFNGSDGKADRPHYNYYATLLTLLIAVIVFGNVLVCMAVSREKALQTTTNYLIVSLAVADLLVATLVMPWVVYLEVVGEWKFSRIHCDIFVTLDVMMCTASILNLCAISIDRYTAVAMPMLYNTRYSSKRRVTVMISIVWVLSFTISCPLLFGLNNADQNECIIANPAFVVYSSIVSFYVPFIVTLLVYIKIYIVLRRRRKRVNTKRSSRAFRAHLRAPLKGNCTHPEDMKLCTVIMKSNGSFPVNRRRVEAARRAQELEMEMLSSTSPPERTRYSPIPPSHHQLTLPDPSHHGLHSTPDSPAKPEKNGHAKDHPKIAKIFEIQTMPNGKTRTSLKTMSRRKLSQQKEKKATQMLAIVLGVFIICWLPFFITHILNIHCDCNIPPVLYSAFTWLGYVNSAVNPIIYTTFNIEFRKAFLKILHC
T1 sequence (P50406 whole entry): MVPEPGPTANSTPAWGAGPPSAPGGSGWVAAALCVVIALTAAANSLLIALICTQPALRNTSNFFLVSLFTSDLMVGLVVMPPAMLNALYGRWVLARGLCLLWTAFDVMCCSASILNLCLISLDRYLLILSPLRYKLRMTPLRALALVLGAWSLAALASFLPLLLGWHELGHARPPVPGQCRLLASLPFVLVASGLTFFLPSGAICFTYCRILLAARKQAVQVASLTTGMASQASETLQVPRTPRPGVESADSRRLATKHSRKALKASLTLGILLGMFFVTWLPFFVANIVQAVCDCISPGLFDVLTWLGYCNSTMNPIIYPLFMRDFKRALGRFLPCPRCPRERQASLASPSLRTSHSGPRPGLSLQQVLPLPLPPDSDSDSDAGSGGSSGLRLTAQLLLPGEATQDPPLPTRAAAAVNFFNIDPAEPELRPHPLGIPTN
T3 sequence (P28223 whole entry): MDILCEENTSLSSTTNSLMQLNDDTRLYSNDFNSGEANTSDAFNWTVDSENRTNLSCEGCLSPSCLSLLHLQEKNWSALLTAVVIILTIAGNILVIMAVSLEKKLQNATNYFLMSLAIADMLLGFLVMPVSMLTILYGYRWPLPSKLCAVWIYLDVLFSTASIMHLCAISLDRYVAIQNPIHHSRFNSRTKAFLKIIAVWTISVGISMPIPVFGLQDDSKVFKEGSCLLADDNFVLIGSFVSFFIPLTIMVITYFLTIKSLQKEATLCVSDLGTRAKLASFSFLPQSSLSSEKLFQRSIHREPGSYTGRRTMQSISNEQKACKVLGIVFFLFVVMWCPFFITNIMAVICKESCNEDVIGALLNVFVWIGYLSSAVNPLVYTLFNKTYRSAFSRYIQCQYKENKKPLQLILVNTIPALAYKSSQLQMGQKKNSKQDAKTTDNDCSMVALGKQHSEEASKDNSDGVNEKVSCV

`C[C@H]1CC[C@@H](CCN2CCC(C(=O)c3ccc(F)cc3)CC2)N1C(=O)c1cc2ccc(SC(F)(F)F)cc2[nH]1` [Example 168, ((2S,5S)-2-(2-(4-(4-Fluorobenzoyl)piperidin-1-yl)ethyl)-5-methylpyrrolidin-1-yl)(6-(trifluoromethylthio)-1H-indol-2-yl)methanone]: the inhibition at 0.1 µM on human 5-HT6 receptor came to 94%; at human α1D receptor it was 61%. Also, on human D2L receptor, the inhibition at 0.01 µM is 81%.
As to `Cc1ccc2cc(C(=O)N3CCC[C@H]3CCN3CCN(c4n[nH]c5ccc(F)cc45)CC3)[nH]c2c1` [Example 25], the inhibition at 0.1 µM at human 5-HT6 receptor is 82%. Besides, at human D2L receptor, the inhibition at 0.01 µM was determined as 28%.
Turning to `O=C(c1ccc(F)cc1)C1CCN(CC[C@@H]2CCCN2C(=O)c2[nH]c3ccccc3c2-c2ccccc2)CC1` [Example 47], the inhibition at 0.1 µM on human 5-HT6 receptor is 94%; at human α1D receptor it was 85%. The inhibition at 0.01 µM at human D2L receptor came out at 72%.
Take `CC(=O)Nc1cccc2cc(C(=O)N3CCC[C@H]3CCN3CCC(C(=O)c4ccc(F)cc4)CC3)n(C)c12` [Example 63]: the inhibition at 0.1 µM at human 5-HT6 receptor was determined as 17%. Further, the inhibition at 0.01 µM at human D2L receptor stood at 0%.
Regarding “(S)-(2-(2-(4-(6-Fluorobenzo[d]isoxazol-3-yl)piperidin-1-yl)ethyl)pyrrolidin-1-yl)(3-phenyl-1H-pyrazol-5-yl)methanone hydrochloride [Example 170]”, the “BINDING INHIBITION RATE (%) 5HT6 100 nM” value at human 5-HT6 receptor was 95%. Moreover, the “BINDING INHIBITION RATE (%) D2L 10 nM” value at human D2L receptor is on record as 87%. Besides, the “BINDING INHIBITION RATE (%) α1D 100 nM” value on human α1D receptor was found to be 83%.
For the compound `O=C(/C=C/c1ccc2c(c1)OCO2)N1CCC[C@H](CCN2CCC(c3noc4cc(F)ccc34)CC2)C1` [Example 14], the inhibition at 0.1 µM was determined as 92% at human 5-HT6 receptor and 89% on human α1D receptor. Further, at human D2L receptor, the inhibition at 0.01 µM turned out to be 75%.
Turning to `O=C(c1cc2ccc(F)cc2[nH]1)N1CCC[C@H](CN2CCN(c3n[nH]c4ccccc34)CC2)C1` [Example 22], at human 5-HT6 receptor, the inhibition at 0.1 µM was found to be 85%. In addition, the inhibition at 0.01 µM at human D2L receptor was determined as 26%.
With `CCOCCO[C@@H]1C[C@@H](CCN2CCC(c3c[nH]c4ccccc34)CC2)N(C(=O)c2cc3ccc(OC)cc3[nH]2)C1` [Example 37], the inhibition at 0.1 µM on human 5-HT6 receptor is 78%. The values for the inhibition at 0.01 µM on human D2L receptor and on human 5-HT2A receptor were 0% and 91%, respectively.
As for `Cc1ccc2cc(C(=O)N3C[C@H](F)C[C@H]3CCN3CCC(C(=O)c4ccc(F)cc4)CC3)[nH]c2c1` [Example 53], the values for the inhibition at 0.1 µM on human 5-HT6 receptor and on human α1D receptor were 94% and 48%, respectively. The inhibition at 0.01 µM at human D2L receptor stood at 89%.
With `Cc1ccc2cc(C(=O)N3[C@H](CCN4CCC(C(=O)c5ccc(F)cc5)CC4)CC[C@@H]3C)[nH]c2c1` [Example 166, ((2S,5S)-2-(2-(4-(4-Fluorobenzoyl)piperidin-1-yl)ethyl)-5-methylpyrrolidin-1-yl)(6-methyl-1H-indol-2-yl)methanone], the inhibition at 0.1 µM amounted to 97% on human 5-HT6 receptor and 62% at human α1D receptor. For the same compound, the inhibition at 0.01 µM on human D2L receptor is 88%.
For the compound `O=C(c1cc2cc(O)ccc2[nH]1)N1CCOC[C@H]1CCN1CCC(c2c[nH]c3ccccc23)CC1` [Example 41], the inhibition at 0.1 µM at human 5-HT6 receptor is 78%; at human α1D receptor it was 81%. The inhibition at 0.01 µM on human D2L receptor was found to be 85%.
In the case of `O=C(c1cccc(-c2ccccc2)c1)N1CCC[C@@H](CCN2CCN(c3nsc4ccccc34)CC2)C1` [Example 57], the inhibition at 0.1 µM at human 5-HT6 receptor stood at 86%; at human α1D receptor, 76%. In addition, the inhibition at 0.01 µM on human D2L receptor is 69%.
The like results for `C[C@H]1CC[C@@H](CCN2CCC(C(=O)c3ccc(F)cc3)CC2)N1C(=O)c1cc2ccc(C(F)(F)F)cc2[nH]1` [Example 167, ((2S,5S)-2-(2-(4-(4-Fluorobenzoyl)piperidin-1-yl)ethyl)-5-methylpyrrolidin-1-yl)(6-(trifluoromethyl)-1H-indol-2-yl)methanone] were, in that order, 95%, 33% and 75%.
Turning to `O=C(c1ccc(F)cc1)C1CCN(CC[C@@H]2CCCN2C(=O)c2cc3ccccc3n2-c2ccncc2)CC1` [Example 49], the inhibition at 0.1 µM on human 5-HT6 receptor came to 75%; on human α1D receptor, 30%. Besides, the inhibition at 0.01 µM on human D2L receptor was 83%.
As for `O=C(c1ccc(F)cc1)C1CCN(CC[C@@H]2CCCN2C(=O)c2cc3ccccc3n2C2CCOCC2)CC1` [Example 48], the inhibition at 0.1 µM on human 5-HT6 receptor is 97%; on human α1D receptor, 40%. Also, the inhibition at 0.01 µM on human D2L receptor was found to be 82%.
The like results for `Cc1ccc2cc(C(=O)N3CCC[C@H]3CCN3CCN(c4n[nH]c5cc(F)ccc45)CC3)[nH]c2c1` [Example 24] were, in that order, 98%, 64% and 88%.
For `N#CCCc1ccc2c(Cl)c(C(=O)N3CCC[C@H]3CCN3CCC(C(=O)c4ccc(F)cc4)CC3)[nH]c2c1` [Example 55], the inhibition at 0.1 µM at human 5-HT6 receptor is 100%. In addition, the inhibition at 0.01 µM on human D2L receptor was 83%.
